Data published in article PMC5862592, “CDK8/19 inhibition induces premature G1/S transition and ATR-dependent cell death in prostate cancer cells” (Oncotarget, 2018).

What was measured:
CDK19 = molecular target: T1, CDK19 (Homo sapiens, UniProt Q9BWU1); assay: TR-FRET ligand displacement assay (Kinase Tracer […], Tb-anti-GST); also KINOMEscan […] inhibition at […]; assay type: binding
T1 construct: GST-CDK19; with Cyclin C

CDK8 [1] = molecular target: T2, CDK8 (Homo sapiens, UniProt P49336); assay: as above; assay type: binding; set-up: GST-CDK8; with Cyclin C
HASPIN [2] = molecular target: T3, HASPIN (Homo sapiens, UniProt Q8TF76); assay: KINOMEscan competition binding at a single concentration ([…]); conditions: read-out: % inhibition at 300 nM
HASPIN [3] = molecular target: T3, HASPIN; assay: biochemical; set-up: KINOMEscan active site-directed competition binding assay (DiscoveRx), 456 kinases, per cent of control at 300 nM; conditions: sheet T-418; read-out: Percent of Control (%)
In short: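 Each compound is tested at 300 nmol/L against a panel of 456 kinases. Interaction is quantified by competition for the kinase active site.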

CDK8 [4] = molecular target: T2, CDK8; assay: TR-FRET ligand displacement assay (Kinase Tracer […], Tb-anti-GST); assay type: binding; set-up: GST-CDK8; with Cyclin C

T2 sequence (P49336 whole entry): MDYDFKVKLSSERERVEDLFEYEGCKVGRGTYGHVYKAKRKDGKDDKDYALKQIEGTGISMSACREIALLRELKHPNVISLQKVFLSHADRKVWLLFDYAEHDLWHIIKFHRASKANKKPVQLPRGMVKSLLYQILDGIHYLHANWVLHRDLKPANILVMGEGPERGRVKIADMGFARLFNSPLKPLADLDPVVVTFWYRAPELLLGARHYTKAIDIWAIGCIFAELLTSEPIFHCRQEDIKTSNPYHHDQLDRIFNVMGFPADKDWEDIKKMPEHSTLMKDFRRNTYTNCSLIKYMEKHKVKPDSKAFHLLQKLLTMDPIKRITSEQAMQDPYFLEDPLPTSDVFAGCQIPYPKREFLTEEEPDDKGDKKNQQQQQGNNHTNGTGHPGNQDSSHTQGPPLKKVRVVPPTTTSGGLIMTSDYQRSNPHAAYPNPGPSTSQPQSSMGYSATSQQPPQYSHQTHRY
T2 sequence (P24863 whole entry partner): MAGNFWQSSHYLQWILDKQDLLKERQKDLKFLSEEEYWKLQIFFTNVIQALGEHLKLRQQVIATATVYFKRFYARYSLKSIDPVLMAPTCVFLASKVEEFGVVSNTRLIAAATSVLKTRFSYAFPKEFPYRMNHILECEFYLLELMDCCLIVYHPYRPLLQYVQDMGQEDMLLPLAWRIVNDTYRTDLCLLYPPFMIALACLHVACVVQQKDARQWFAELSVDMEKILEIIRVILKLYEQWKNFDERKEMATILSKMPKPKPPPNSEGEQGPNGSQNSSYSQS
T3 sequence (Q8TF76 whole entry): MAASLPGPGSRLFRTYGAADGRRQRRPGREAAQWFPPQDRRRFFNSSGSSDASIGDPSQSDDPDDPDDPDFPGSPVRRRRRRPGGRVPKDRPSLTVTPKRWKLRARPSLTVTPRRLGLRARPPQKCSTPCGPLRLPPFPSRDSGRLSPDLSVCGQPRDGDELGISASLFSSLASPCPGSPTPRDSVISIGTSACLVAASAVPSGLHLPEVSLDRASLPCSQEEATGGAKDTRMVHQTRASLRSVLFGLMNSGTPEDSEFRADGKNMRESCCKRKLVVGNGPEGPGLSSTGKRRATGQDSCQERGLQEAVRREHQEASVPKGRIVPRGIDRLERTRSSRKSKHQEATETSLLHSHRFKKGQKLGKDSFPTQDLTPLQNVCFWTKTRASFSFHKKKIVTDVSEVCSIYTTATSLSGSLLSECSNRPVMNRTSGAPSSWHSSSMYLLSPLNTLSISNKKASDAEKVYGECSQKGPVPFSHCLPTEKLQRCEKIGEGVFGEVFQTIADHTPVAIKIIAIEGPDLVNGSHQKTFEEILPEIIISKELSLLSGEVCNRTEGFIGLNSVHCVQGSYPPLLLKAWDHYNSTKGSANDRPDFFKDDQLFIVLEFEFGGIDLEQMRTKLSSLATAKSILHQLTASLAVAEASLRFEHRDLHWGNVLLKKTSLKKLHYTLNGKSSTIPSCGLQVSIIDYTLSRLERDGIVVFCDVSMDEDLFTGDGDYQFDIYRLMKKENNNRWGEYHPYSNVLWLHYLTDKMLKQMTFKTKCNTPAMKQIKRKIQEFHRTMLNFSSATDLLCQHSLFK
T1 sequence (Q9BWU1 whole entry): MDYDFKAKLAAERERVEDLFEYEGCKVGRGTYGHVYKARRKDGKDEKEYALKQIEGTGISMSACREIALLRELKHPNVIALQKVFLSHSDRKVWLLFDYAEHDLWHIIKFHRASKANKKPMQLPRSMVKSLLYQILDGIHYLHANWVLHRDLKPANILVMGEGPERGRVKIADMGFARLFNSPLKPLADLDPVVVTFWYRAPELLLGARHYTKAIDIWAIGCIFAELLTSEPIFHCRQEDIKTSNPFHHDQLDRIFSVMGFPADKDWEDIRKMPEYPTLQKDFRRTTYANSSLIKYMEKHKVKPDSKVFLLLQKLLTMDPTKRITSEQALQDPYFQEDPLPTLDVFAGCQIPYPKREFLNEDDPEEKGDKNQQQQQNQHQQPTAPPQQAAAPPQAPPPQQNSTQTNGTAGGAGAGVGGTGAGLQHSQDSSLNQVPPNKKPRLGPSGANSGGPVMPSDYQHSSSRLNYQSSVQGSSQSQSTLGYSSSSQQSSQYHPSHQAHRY
T1 sequence (P24863 whole entry partner): as the sequence (P24863 whole entry partner) above

| SMILES | IC50 (CDK19) [nM] | IC50 (CDK8 [1]) [nM] | inhibition at 0.3 µM (HASPIN [2]) [%] | remaining binding at 0.3 µM (HASPIN [3]) [%] | IC50 (CDK8 [4]) [nM] |
| --- | --- | --- | --- | --- | --- |
| Cc1ncccc1Oc1sc(C(N)=O)c2c1-c1c(cnn1C)CC2 [T-474, 1-methyl-8-((2-methylpyridin-3-yl)oxy)-4,5-dihydro-1H-thieno[3,4-g]indazole-6-carboxamide] | 1.9 | 1.6 | 99 |  |  |
| O=C(/C=C/c1cnccc1-c1ccc(F)cc1)Nc1ccc(CCc2nnco2)cc1 [T-418, (2E)-3-(4-(4-fluorophenyl)pyridin-3-yl)-N-(4-(2-(1,3,4-oxadiazol-2-yl)ethyl)phenyl)acrylamide] |  |  |  | 90 | 23 |
